ChEMBL document CHEMBL5038624, “Construction and activity evaluation of novel dual-target (SE/CYP51) anti-fungal agents containing amide naphthyl structure” (Eur J Med Chem, 2022)
Converted amounts (≈) assume the structure as drawn. The source made the active and inactive calls. The rule behind the calls is not given here.

Assays:
Candida albicans [1] = assay: Antifungal activity against Candida albicans ATCC SC5314 infected in mouse assessed as reduction on endothelial fungal infection at 4 mg/kg,ip administrated every 2 days for 14 days by hematoxylin-eosin staining based assay; assay type: functional, organism-based; conditions: time 14.0 day
Candida tropicalis = assay: Antifungal activity against Candida tropicalis ATCC 1369 assessed as reduction in fungal growth incubated for 72 hrs by CLSI protocol based broth microdilution method; assay type: functional
Candida albicans [2] = assay: Induction of apoptosis against Candida albicans ATCC SC5314 assessed as viable cells measured after 48 hrs by Annexin V-FITC/propidium iodide staining based flow cytometry (reference value: 80.78 %); assay type: functional
Mus musculus = assay: Antifungal activity against Candida albicans ATCC SC5314 infected in mouse assessed as increase in body weight at 4 mg/kg,ip administrated every 2 days for 14 days; assay type: functional, organism-based; conditions: time 14.0 day
Candida albicans [3] = assay: Antifungal activity against Candida albicans ATCC SC5314 assessed as irregular cell structure incubated for 72 hrs by TEM analysis; assay type: functional, organism-based
Candida albicans [4] = assay: Induction of apoptosis against Candida albicans ATCC SC5314 assessed as mild apoptotic cells measured after 48 hrs by Annexin V-FITC/propidium iodide staining based flow cytometry (Rvb =0.29 %); assay type: functional
Candida albicans [5] = assay: Antifungal activity against Candida albicans strain 17 assessed as reduction in fungal growth incubated for 72 hrs by CLSI protocol based broth microdilution method; assay type: functional
Candida albicans [6] = assay: Inhibition of SE/CYP51 in Candida albicans ATCC SC5314 assessed as unknown sterol level incubated for 48 hrs by LC/MS analysis; design: scale not given: the % may be the effect or the level left
Candida albicans [7] = assay: Antifungal activity against Candida albicans SC5314 assessed as reduction in fungal growth incubated for 72 hrs by CLSI protocol based broth microdilution method; assay type: functional
Candida albicans [8] = assay: Inhibition of SE/CYP51 in Candida albicans ATCC SC5314 assessed as squalene level incubated for 48 hrs by LC/MS analysis; design: scale not given: the % may be the effect or the level left
Candida albicans [9] = assay: Inhibition of SE/CYP51 in Candida albicans ATCC SC5314 assessed as eburicol level incubated for 48 hrs by LC/MS analysis; design: scale not given: the % may be the effect or the level left
[10] = Toxicity in mouse infected with Candida albicans ATCC SC5314 assessed as effect on heart at 4 mg/kg,ip administrated every 2 days for 14 days by hematoxylin-eosin staining based assay; assay type: organism-based; conditions: in vivo, 336 h, time 14 day
Candida albicans [11] = assay: Antifungal activity against Candida albicans strain CaR assessed as reduction in fungal growth incubated for 72 hrs by CLSI protocol based broth microdilution method; assay type: functional
Candida albicans [12] = assay: Antifungal activity against Candida albicans strain 632 assessed as reduction in fungal growth incubated for 72 hrs by CLSI protocol based broth microdilution method; assay type: functional
[13] = Toxicity in mouse infected with Candida albicans ATCC SC5314 assessed as effect on liver at 4 mg/kg,ip administrated every 2 days for 14 days by hematoxylin-eosin staining based assay; assay type: organism-based; conditions: in vivo, 336 h, time 14 day
[14] = Toxicity in mouse infected with Candida albicans ATCC SC5314 assessed as effect on lung at 4 mg/kg,ip administrated every 2 days for 14 days by hematoxylin-eosin staining based assay; assay type: organism-based; conditions: in vivo, 336 h, time 14 day
[15] = Toxicity in mouse infected with Candida albicans ATCC SC5314 assessed as effect on kidney at 4 mg/kg,ip administrated every 2 days for 14 days by hematoxylin-eosin staining based assay; assay type: organism-based; conditions: in vivo, 336 h, time 14 day
[16] = Inhibition of SE in Candida albicans ATCC SC5314 measured after 30 mins by HPLC analysis
Nakaseomyces glabratus = assay: Antifungal activity against Candida glabrata ATCC 0001 assessed as reduction in fungal growth incubated for 72 hrs by CLSI protocol based broth microdilution method; assay type: functional
Candida albicans [17] = assay: Inhibition of SE/CYP51 in Candida albicans ATCC SC5314 assessed as lanosterol level incubated for 48 hrs by LC/MS analysis; design: scale not given: the % may be the effect or the level left
Aspergillus fumigatus = assay: Antifungal activity against Aspergillus fumigatus KM8001 assessed as reduction in fungal growth incubated for 72 hrs by CLSI protocol based broth microdilution method; assay type: functional
Candida albicans [18] = assay: Antifungal activity against Candida albicans strain 904 assessed as reduction in fungal growth incubated for 72 hrs by CLSI protocol based broth microdilution method; assay type: functional
Candida albicans [19] = assay: Antifungal activity against Candida albicans ATCC SC5314 assessed as decrease in fungal cell density by fluorescence microscopy; assay type: functional, organism-based
Candida albicans [20] = assay: Antifungal activity against Candida albicans ATCC SC5314 assessed as disappearance of fungal cell boundaries incubated for 96 hrs by TEM analysis; assay type: functional, organism-based
Candida albicans [21] = assay: Antifungal activity against Candida albicans strain 901 assessed as reduction in fungal growth incubated for 72 hrs by CLSI protocol based broth microdilution method; assay type: functional
[22] = molecular target: Lanosterol 14-alpha demethylase (Candida albicans (strain SC5314 / ATCC MYA-2876) (Yeast), UniProt P10613); assay: Inhibition of CYP51 in Candida albicans ATCC SC5314 measured after 30 mins by HPLC analysis
Chain of Lanosterol 14-alpha demethylase (P10613 whole entry): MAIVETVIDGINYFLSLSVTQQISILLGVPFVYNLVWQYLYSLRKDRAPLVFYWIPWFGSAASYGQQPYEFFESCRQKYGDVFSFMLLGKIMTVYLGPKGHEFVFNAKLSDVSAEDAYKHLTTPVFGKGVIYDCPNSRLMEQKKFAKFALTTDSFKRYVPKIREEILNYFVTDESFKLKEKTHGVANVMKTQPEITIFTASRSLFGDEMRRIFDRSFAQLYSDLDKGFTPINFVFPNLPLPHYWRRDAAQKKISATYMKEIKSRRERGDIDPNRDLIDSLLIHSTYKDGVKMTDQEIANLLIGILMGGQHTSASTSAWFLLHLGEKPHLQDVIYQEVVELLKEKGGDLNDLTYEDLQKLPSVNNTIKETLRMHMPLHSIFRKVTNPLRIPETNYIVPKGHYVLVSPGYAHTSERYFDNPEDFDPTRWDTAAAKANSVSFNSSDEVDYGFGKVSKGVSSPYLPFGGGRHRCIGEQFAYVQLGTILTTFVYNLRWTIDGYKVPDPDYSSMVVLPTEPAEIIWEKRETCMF

[23] = Toxicity in mouse assessed as effect on aspartate transaminase level; conditions: in vivo
Candida albicans [24] = assay: Antifungal activity against Candida albicans ATCC SC5314 infected in mouse assessed as decrease in fungal infection at 4 mg/kg,ip administrated every 2 days for 14 days; assay type: functional, organism-based; conditions: time 14.0 day
Candida albicans [25] = assay: Antifungal activity against Candida albicans ATCC SC5314 assessed as irregular cell structure incubated for 48 hrs by TEM analysis; assay type: functional, organism-based
Candida albicans [26] = assay: Induction of apoptosis against Candida albicans ATCC SC5314 assessed as late apoptotic cells measured after 48 hrs by Annexin V-FITC/propidium iodide staining based flow cytometry (reference value: 0.71 %); assay type: functional
Candida albicans [27] = assay: Induction of apoptosis against Candida albicans ATCC SC5314 assessed as necrotic cells measured after 48 hrs by Annexin V-FITC/propidium iodide staining based flow cytometry (reference value: 18.22 %); assay type: functional
[28] = Toxicity in mouse infected with Candida albicans ATCC SC5314 assessed as effect on spleen at 4 mg/kg,ip administrated every 2 days for 14 days by hematoxylin-eosin staining based assay; assay type: organism-based; conditions: in vivo, 336 h, time 14 day
[29] = Toxicity in mouse assessed as effect on blood urea nitrogen level; conditions: in vivo
[30] = Toxicity in mouse assessed as effect on alanine transaminase level; conditions: in vivo
Candida albicans [31] = assay: Inhibition of SE/CYP51 in Candida albicans ATCC SC5314 assessed as ergosterol level incubated for 48 hrs by LC/MS analysis; design: scale not given: the % may be the effect or the level left
Pichia kudriavzevii = assay: Antifungal activity against Candida krusei ATCC 6258 assessed as reduction in fungal growth incubated for 72 hrs by CLSI protocol based broth microdilution method; assay type: functional

For `O=C(/C=C/c1cccc2ccccc12)NC(Cn1cncn1)c1ccccc1` (centres undefined), the Activity (Candida albicans [1]) was “Active”, the MIC50 (Candida tropicalis) was 0.125 µg/mL (≈ 0.339 µM) and the Activity (Candida albicans [2]) was 52.27%. For the same compound, the Activity (Mus musculus) was “Active”, the Activity (Candida albicans [3]) was “Active” and the Activity (Candida albicans [4]) was 0.26%. The MIC50 (Candida albicans [5]) was 2 µg/mL (≈ 5.43 µM), the Activity (Candida albicans [6]) was 7% and the MIC50 (Candida albicans [7]) was 0.125 µg/mL (≈ 0.339 µM). For the same compound, the Activity (Candida albicans [8]) was 29.5%, the Activity (Candida albicans [9]) was 32.9% and the Activity [10] was “Non-Toxic”. For the same compound, the MIC50 (Candida albicans [11]) was 2 µg/mL (≈ 5.43 µM), the MIC50 (Candida albicans [12]) was 2 µg/mL (≈ 5.43 µM) and the Activity [13] was “Non-Toxic”. For the same compound, the Activity [14] was “Non-Toxic”, the Activity [15] was “Non-Toxic” and the IC50 [16] was 930 nM. It also gave an MIC50 (Nakaseomyces glabratus) of 0.25 µg/mL (≈ 0.679 µM), an Activity (Candida albicans [17]) of 11.4% and an MIC50 (Aspergillus fumigatus) of 2 µg/mL (≈ 5.43 µM). The MIC50 (Candida albicans [18]) was 2 µg/mL (≈ 5.43 µM), the Activity (Candida albicans [19]) was “Active” and the Activity (Candida albicans [20]) was “Active”. It also gave an MIC50 (Candida albicans [21]) of 1 µg/mL (≈ 2.71 µM), an IC50 [22] of 209 nM and an Activity [23] of 118 IU/L. The Activity (Candida albicans [24]) was “Active”, the Activity (Candida albicans [25]) was “Active” and the Activity (Candida albicans [26]) was 1.24%. For the same compound, the Activity (Candida albicans [27]) was 46.23%, the Activity [28] was “Non-Toxic” and the Activity [29] was 6.1 mmol/L. For the same compound, the Activity [30] was 101.6 IU/L, the Activity (Candida albicans [31]) was 19.2% and the MIC50 (Pichia kudriavzevii) was 0.25 µg/mL (≈ 0.679 µM).

With `O=C(/C=C/c1ccc2ccccc2c1)NC(Cn1cncn1)C(=O)c1ccccc1` (centres undefined) the Activity (Candida albicans [1]) was “Active”, the MIC50 (Candida tropicalis) was 0.25 µg/mL (≈ 0.631 µM) and the Activity (Candida albicans [2]) was 54.66%. The Activity (Mus musculus) was “Active”, the Activity (Candida albicans [4]) was 0.36% and the MIC50 (Candida albicans [5]) was 4 µg/mL (≈ 10.1 µM). For the same compound, the Activity (Candida albicans [6]) was 6.4%, the MIC50 (Candida albicans [7]) was 0.125 µg/mL (≈ 0.315 µM) and the Activity (Candida albicans [8]) was 28.9%. The Activity (Candida albicans [9]) was 34.7%, the Activity [10] was “Non-Toxic” and the MIC50 (Candida albicans [11]) was 2 µg/mL (≈ 5.04 µM). For the same compound, the MIC50 (Candida albicans [12]) was 2 µg/mL (≈ 5.04 µM), the Activity [13] was “Non-Toxic” and the Activity [14] was “Non-Toxic”. For the same compound, the Activity [15] was “Non-Toxic”, the IC50 [16] was 650 nM and the MIC50 (Nakaseomyces glabratus) was 0.125 µg/mL (≈ 0.315 µM). For the same compound, the Activity (Candida albicans [17]) was 13.6%, the MIC50 (Aspergillus fumigatus) was 2 µg/mL (≈ 5.04 µM) and the MIC50 (Candida albicans [18]) was 4 µg/mL (≈ 10.1 µM). For the same compound, the Activity (Candida albicans [19]) was “Active”, the MIC50 (Candida albicans [21]) was 4 µg/mL (≈ 10.1 µM) and the IC50 [22] was 323 nM. The Activity [23] was 107.5 IU/L, the Activity (Candida albicans [24]) was “Active” and the Activity (Candida albicans [26]) was 1.11%. For the same compound, the Activity (Candida albicans [27]) was 43.87%, the Activity [28] was “Non-Toxic” and the Activity [29] was 6.8 mmol/L. It also gave an Activity [30] of 96.5 IU/L, an Activity (Candida albicans [31]) of 16.4% and an MIC50 (Pichia kudriavzevii) of 0.5 µg/mL (≈ 1.26 µM).
